Assay results published in patent publication US9908896B2, “P38 and JNK MAPK inhibitors for the treatment and prophylaxis of degenerative diseases of the nervous system” (ALLINKY BIOPHARMA, priority 2014, dated 2018).
Where “and” joins values, the source holds several entries; their conditions need not be identical. Equal values may be shown once. Read-outs that look alike come from different tables or passages of the source.

Assays:
[1] = Single dose i.p. and i.v. blood brain barrier permeability study, plasma and brain concentration (LC-MS/MS); format: in vivo, male Sprague Dawley rat; details: for concentration at 2 h: male, Sprague Dawley, 10 mg/kg
Protocol: The objective of these tests was to determine the plasma and brain concentration of the compound 1 in male Sprague Dawley rat after single intraperioneal (i.p.) and intravenous (i.v.) administration.
The compound 1 was administered intravenously (i.v.) through tail vein and intraperitoneally (i.p.) in abdominal cavity. After dosing of each animal, the time was documented.
Formulation vehicle: 20 Vol.-% Cremophore, 10 Vol.-% ethanol, 70 Vol.-% normal saline
Bioanalysis was performed using fit-for-purpose LC-MS/MS method for the quantification of test compounds in plasma samples and brain homogenate. The method was validated for calibration curve consisted of nine non-zero calibration standards along with a double blank and zero standard samples. Study samples were analysed along with two sets of quality control samples (6 QC samples; low, medium and high QC sample).
Sample Process: Blood samples were placed on ice prior to centrifugation and centrifuged within 15 min at 5000 rpm for 10 min at 4° C.
Immediately after blood withdrawal, in situ brain perfusion was performed using chilled saline. The chest of the rat was exposed, the abdominal aorta was clamped and both jugular veins were cut. Intra-cardial perfusion was performed through an insertion in the left ventricle. Perfusion of each rat was followed by exanguination for brain collection. The skin over the cranium was incised and deflected. The head was flexed and a cut was made through the muscles and the spinal cord at the junction of the foreman magnum and atlas vertebra. A circumferential incision was carefully made in the cranium using a bone cutter. The roof of the cranium was lifted off to expose the meninges and brain. The meninges were removed carefully. Then holding the head with the nose pointing upward, the anterior part of the brain was lifted to separate the brain. Separated brain was immediately weighed and frozen at −80±10° C. until homogenization.
Brain samples were thawed on ice. An appropriate volume of ice cold homogenizing media (Normal Saline) was added. Brain samples were homogenized on ice with the Polytron® homogenizer and volume was adjusted with homogenizing media to achieve 1 g of brain per 5 ml of homogenate. After homogenization, the brain homogenate were immediately frozen at −80° C. until analysis.

[2] = system: Aβ25-35-induced learning deficits; test: Novel object recognition after i.c.v. Aβ25-35 injection; format: in vivo, male Sprague Dawley rats; details: 10 mg/kg i.v. once a day
Protocol: The purpose of the study was to determine whether the test compound 1 can alleviate the pathology produced in rats by the acute intracerebroventricular (i.c.v) injection of an oligomeric Aβ25-35 peptide preparation. The compound efficacy was evaluated 7 days after the peptide administration, on: • the attenuation of the Aβ25-35-induced learning deficits (recognition long-term memory: novel object recognition); • the attenuation of the Aβ25-35-induced Aβ^1-42 accumulation in the rat hippocampus. One administration procedure was examined: the compound 1 (10 mg/kg) administered intraveinously (i.v.) once a day during 9 days. […] On day 8 and 9, the recognition long-term memory of the animals was assessed using the novel object recognition (NOR) procedure. […] Each rat was placed in the open-field and the exploratory activity recorded during a 10-min duration session. The activity was analyzed using the Nosetrack® protocol (Viewpoint), in terms of number of contact with objects and duration of contacts. […] Each rat was placed again in the open-field and the exploratory activity recorded during a 10-min duration session. The activity was analyzed similarly. The preferential exploration index was calculated as the ratio of the number (or duration) of contacts with the object in position #1 over the total number for duration) of contacts with the two objects. […]

[3] = system: TNF-α secretion by a human monocytic cell line, THP-1; test: Inhibition of TNF-α secretion by LPS-stimulated THP-1 cells (ELISA); format: cell-based; details: LPS-stimulated THP-1, TNF-α
Protocol: Thp1-Inhibition of TNF-α Secretion by a Human Monocytic Cell Line, THP-1
THP-1 cells, growing in log phase, were collected by centrifugation and resuspended in RPMI 1640 (Sigma Aldrich), to a final cell concentration of 2×10^6 cells/ml. Cells were plated into 24-well plates (BD Biosciences). Dilutions of compounds in dimethyl sulfoxide (DMSO) were added to the culture to a final concentration M. The final DMSO concentration was 0.5%. The cells […] suspensions were preincubated with compounds for 1 h at 37° C. in a 5% CO2 humidified atmosphere before the addition of LPS (Sigma Aldrich, L2654) to a g/ml. After that, cells were incubated for 3 h followed final concentration of […] by centrifugation to pellet cells. Cell supernatants were stored at 4° C. until human analysis for TNF-α content. TNF-α levels were determined by ELISA (TNF Biotrak, GE Healthcare) following the manufacturer's directions. The percentage inhibition was calculated for each compound concentration tested, and the IC50 was calculated for each compound.

Concentration in rat brain homogenate i.p. at 2 h, individual rats ([1]; 10 mg/kg i.p., rats R1, R2, R3): 31.30 ng/g and 44.55 ng/g
Concentration in rat plasma i.p. at 2 h, individual rats ([1]; 10 mg/kg i.p., rats R1, R2, R3): 63.64 ng/mL and 87.75 ng/mL
Concentration in rat brain homogenate i.v. at 2 h, individual rats ([1]; 10 mg/kg i.v., rats R1, R2, R3): 394.80 ng/g and 439.45 ng/g
Concentration in rat plasma i.v. at 2 h, individual rats ([1]; 10 mg/kg i.v., rats R1, R2, R3): 293.38 ng/mL and 156.26 ng/mL
concentration at 2 h ([1]; rat, brain homogenate, intraperitoneal, 10 mg/kg i.p., mean of 3 rats, read-out: Concentration in rat brain homogenate i.p. at 2 h, Mean): 41.6 ng/g
concentration at 2 h ([1]; rat, brain homogenate, intraperitoneal, 10 mg/kg i.p., rats R1, R2, R3, read-out: Concentration in rat brain homogenate i.p. at 2 h, individual rats): 49.1 ng/g
concentration at 2 h ([1]; rat, brain homogenate, intravenous, 10 mg/kg i.v., mean of 3 rats, read-out: Concentration in rat brain homogenate i.v. at 2 h, Mean): 386 ng/g
concentration at 2 h ([1]; rat, brain homogenate, intravenous, 10 mg/kg i.v., rats R1, R2, R3, read-out: Concentration in rat brain homogenate i.v. at 2 h, individual rats): 323 ng/g
concentration at 2 h ([1]; rat, plasma, intraperitoneal, 10 mg/kg i.p., mean of 3 rats, read-out: Concentration in rat plasma i.p. at 2 h, Mean): 91.5 ng/mL
concentration at 2 h ([1]; rat, plasma, intraperitoneal, 10 mg/kg i.p., rats R1, R2, R3, read-out: Concentration in rat plasma i.p. at 2 h, individual rats): 123 ng/mL
concentration at 2 h ([1]; rat, plasma, intravenous, 10 mg/kg i.v., mean of 3 rats, read-out: Concentration in rat plasma i.v. at 2 h, Mean): 204 ng/mL
concentration at 2 h ([1]; rat, plasma, intravenous, 10 mg/kg i.v., rats R1, R2, R3, read-out: Concentration in rat plasma i.v. at 2 h, individual rats): 163 ng/mL
blood-brain permeability (in words) ([1]; rat, 10 mg/kg i.v. or i.p., 2 h): excellent blood-brain permeability
Structure (SMILES): CCCOc1ccc(Nc2nc3nonc3nc2N2CCC(Oc3ccc(Cl)cc3)CC2)cc1 [Comp 1]
Object preference in session 2 (contacts and duration of contacts) ([2]; day 8, two identical objects, vs no preference level): higher than 50%
Novel object preference in session 3 (number and duration of contacts) ([2]; day 9, vs 50% level): alleviated the impairments
inhibition at 1 µM ([3]; 1 μM compound, read-out: % of inhibition at 1 μM, THP1): 51%
inhibition at 10 µM ([3]; 10 μM compound, read-out: % of inhibition at 10 μM, THP1): 74%
